Experiment in all cases: NCI-60 cell line screen, 48 h
Assay [1] concerns A549 NSCLC.
Assay [2] relates to DU-145 prostate.
Assay [3] concerns EKVX NSCLC.
The subject of assay [4] is HCT-15 colon.
Assay [5] has as its system HL-60(TB) leukemia.
For assay [6], the system named is NCI-H522 lung.
In assay [7] the test system is OVCAR-3 ovarian.
Assay [8] concerns OVCAR-5 ovarian.
Assay [9] concerns SK-MEL-28 melanoma.
For assay [10], the system named is SW-620 colon.

Several values for one entry are separate records, joined by “and”; a condition that tells them apart may be missing. Equal entries are not always repeated.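 All cell lines were grown in 96-well plates and treated with compound for 48 hours. GI50 = concentration required for 50% inhibition of growth. TGI marks complete inhibition of growth.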

Turning to `COc1ccc(/C=C/c2ccnc3ccccc23)cc1`, the TGI in [1] came out at 30.8 µM; in [2] it was 28 µM; in [3], 25.8 µM; in [4], 39.6 µM; in assay [5], 20.1 µM; in assay [6] it was 36.6 µM. The TGI in assay [7] was 26.3 µM; in assay [8], 36.5 µM; in assay [9], 29.4 µM; in assay [10], 36.3 µM.

Consider `CC(=O)NC1CCCN(O)C(=O)/C=C(/C)CCOC(=O)C(NC(C)=O)CCCN(O)C(=O)/C=C(/C)CCOC(=O)C(NC(C)=O)CCCN(O)C(=O)/C=C(/C)CCOC1=O.[Fe]` (stereo not drawn), for which the GI50 in assay [1], in assay [2], in assay [3], in assay [4], in [5] and in [6] was > 100 µM each time. For the same compound, the GI50 in assay [7], in [8], in assay [9] and in assay [10] was > 100 µM throughout. For the same compound, the TGI in assay [1], in assay [2], in [3], in assay [4], in assay [5] and in [6] was > 100 µM in each case. Moreover, the TGI in [7], in assay [8], in assay [9] and in [10] was > 100 µM each time.

In the case of `Cc1ccc(C2NC(=S)N3C(c4ccc(C)cc4)NC(=S)N23)cc1` (stereo not drawn), the GI50 in assay [1] is 5.82 µM; in assay [2] it was 3.62 µM; in [3], 7.93 µM; in assay [4] it was 3.7 µM; in [5] it was 1.88 µM; in assay [6], 1.94 µM. For the same compound, the GI50 in [7] is 3.26 µM; in assay [8], 14.7 µM; in [9], 11.5 µM; in assay [10], 3.78 µM. Besides, the TGI in assay [1] was 20.1 µM; in assay [2], 13.6 µM; in assay [3] it was 25.3 µM; in assay [4], 15.3 µM; in assay [5], 5.67 µM; in [6], 8.54 µM. In addition, the TGI came out at 11.5 µM in assay [7], 28.2 µM in assay [8], 24.2 µM in assay [9] and 17.9 µM in assay [10].

With `Cc1cc(C(=O)N2CCN(C)CC2)c2c(=O)n(-c3ccccc3)c(=O)n(CC(O)CN3CCN(c4ncccn4)CC3)c2n1` (stereo not drawn), the GI50 in assay [2], in assay [3], in [4], in assay [5], in [6] and in assay [7] was > 100 µM each time. The GI50 in assay [8], in assay [9] and in [10] was > 100 µM each time. For the same compound, the TGI in [2], in assay [3], in [4], in [5], in [6] and in [7] was > 100 µM in each case. Moreover, the TGI in [8], in [9] and in [10] was > 100 µM each time.

As for `O=C(NC1CCNCC1)c1[nH]ncc1NC(=O)c1c(Cl)cccc1Cl`, the GI50 was 0.637 µM and 0.86 µM in assay [1]; 0.417 µM and 0.472 µM in assay [2]; 0.998 µM in [3]; 9.83 µM and 9.93 µM in assay [4]; 0.305 µM and 0.285 µM in assay [5]; 0.387 µM and 0.28 µM in assay [6]. Moreover, the GI50 in [7] is 0.325 µM and 0.386 µM; in assay [8], 0.348 µM and 0.282 µM; in assay [9], 0.43 µM and 0.568 µM; in assay [10] it was 0.365 µM and 0.425 µM. Also, the TGI in assay [1] was > 100 µM; in assay [2], > 23.6 µM; in assay [3], > 10 µM; in assay [4], > 100 µM; in assay [5], 1.09 µM and 1.64 µM; in [6], 1.94 µM and 2.17 µM. Besides, the TGI in assay [7] was > 27.9 µM; in [8], > 100 µM; in assay [9] it was 2.32 µM and 3.96 µM; in [10] it was > 10 µM.

Turning to `Nc1cccc2c1CN(C1CCC(=O)NC1=O)C2=O` (stereo not drawn), the GI50 in [1], in assay [2], in assay [3], in assay [4], in assay [5] and in assay [6] was > 100 µM in each case. Also, the GI50 in assay [7], in assay [8], in [9] and in assay [10] was > 100 µM each time. Also, the TGI in [1], in assay [2], in [3], in assay [4], in [5] and in [6] was > 100 µM in each case. In addition, the TGI in assay [7], in assay [8], in [9] and in [10] was > 100 µM each time.

Turning to `O=C(N/N=C/c1ccncc1)c1ccc(C(F)(F)F)nc1Nc1cccc(C(F)(F)F)c1`, the GI50 in [1] was 3.12 µM; in assay [2] it was 2.59 µM; in assay [3], 1.39 µM; in assay [4], 0.804 µM; in assay [5], 1.82 µM; in assay [6], 2.7 µM. Also, the GI50 is 2.65 µM in assay [7], 2.83 µM in [8], 3.48 µM in assay [9] and 2.66 µM in assay [10]. Besides, the TGI stood at 10.9 µM in assay [1]; 6.83 µM in assay [2]; 8.87 µM in assay [3]; 11.7 µM in assay [4]; 8.2 µM in [5]; 10.7 µM in assay [6]. The TGI turned out to be 7.74 µM in [7], 14.8 µM in [8], 14.2 µM in assay [9] and 12.8 µM in assay [10].

As to `N#Cc1ccc(N2Cc3cc(Cl)ccc3OC3=C2C(=O)N(Cc2ccc(F)cc2)C3=O)cc1`, the GI50 is 7.34 µM in assay [1]; 0.662 µM in assay [2]; 1.08 µM in assay [3]; 0.543 µM in assay [4]; 0.23 µM in assay [5]; 0.475 µM in assay [6]. Moreover, the GI50 in assay [7] was 0.494 µM; in assay [8], 0.737 µM; in assay [9] it was 0.558 µM; in assay [10] it was 0.411 µM. For the same compound, the TGI in [1] was determined as 23.2 µM; in assay [2] it was 1.45 µM; in [3], 4.24 µM; in assay [4], 1.43 µM; in assay [5], 0.469 µM; in [6], 1.01 µM. The TGI in [7] was found to be 0.96 µM; in assay [8] it was 1.93 µM; in [9], 1.13 µM; in [10] it was 1.02 µM.

The values are drawn from PubChem BioAssay (NCI).
